The data set is described as follows: relative permittivity at zero frequency (dimensionless). The conditions noted are these: 303.15 K; 101.33 kPa; Liquid; Parallel plate capacitor.

Numbers after ± are expanded uncertainties.

`CN(C)CCO` [2-(N,N-dimethylamino)ethanol]: the “relative permittivity at zero frequency” value is 17.18 ± 0.1.
Consider `CN(C)C=O` [dimethylformamide], for which the “relative permittivity at zero frequency” value is reported as 36.55 ± 0.22.
Under `NC=O` [formamide] stands 106.14 ± 0.01.
